Assay results taken from the supplement of paper PMC6206229.
≈ marks a conversion by molar mass, not a printed value.

Key:
[1] = test system: Staphylococcus aureus ATCC 29213 (MSSA); experiment: minimum inhibitory concentration; extreme values may be limits of the assay
Method in brief: (§1)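 The minimum inhibitory concentration was defined as the lowest concentration whose well remained blue rather than becoming pink. It was measured against methicillin-susceptible and methicillin-resistant Staphylococcus aureus by broth microdilution in 96-well plates according to CLSI guidance, with compounds at 0 to 100 µM incubated for 24 h at 37°C before 30 µl of 0.015% resazurin was added for 2–4 h. Each plate included positive controls.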

[2] = test system: Staphylococcus aureus ATCC 700699 (MRSA); experiment: as above
Method in brief: as §1

| Compound | minimum inhibitory concentration [1] | minimum inhibitory concentration [2] |
| --- | --- | --- |
| C[C@H]1c2cccc(O)c2C(=O)C2=C(O)[C@]3(O)C(=O)C(C(N)=O)=C(O)[C@@H](N(C)C)[C@@H]3[C@@H](O)[C@@H]21 | 0.781 µM (≈ 0.347 µg/mL) | 25 µM (≈ 11.1 µg/mL) |
| FC(F)(F)c1nnc2ccc(Cl)nn12 | > 50 µM | > 50 µM |
| CCOC(=O)NC(=O)c1ccsc1NC(=O)c1nc2ccccc2s1 | > 50 µM | > 50 µM |
| CN1CCC(NCc2cccc(-c3ccc(S(=O)(=O)NCc4ccccc4)cc3)c2)CC1 | > 50 µM | > 50 µM |
| COc1cc(NC(C)CCCN)c2ncccc2c1 (centres undefined) | > 50 µM | > 50 µM |
| COc1cccc(-n2nnnc2S(C)(=O)=O)c1 | > 50 µM | > 50 µM |
| CNCCC(Oc1ccc(C(F)(F)F)cc1)c1ccccc1 (centres undefined) | > 50 µM | > 50 µM |
